In ChEMBL document CHEMBL1126772, “Activated ketone based inhibitors of human renin” (J Med Chem, 1993) one finds IC50 data, which are given here for 16 compounds.

The structures appear in SMILES notation. Square brackets hold non-standard residues; d marks the D form. Peptide text beside a SMILES is read from it. * marks the point of attachment. ξ: configuration not given here. ξCha = NC(CC1CCCCC1)C(=O)O; Boc = CC(C)(C)OC(=O)*; CF3 = FC(F)(F)*

In one assay the target is T1, Cathepsin D (Bos taurus, UniProt P80209).
T1 sequence (P80209 whole entry): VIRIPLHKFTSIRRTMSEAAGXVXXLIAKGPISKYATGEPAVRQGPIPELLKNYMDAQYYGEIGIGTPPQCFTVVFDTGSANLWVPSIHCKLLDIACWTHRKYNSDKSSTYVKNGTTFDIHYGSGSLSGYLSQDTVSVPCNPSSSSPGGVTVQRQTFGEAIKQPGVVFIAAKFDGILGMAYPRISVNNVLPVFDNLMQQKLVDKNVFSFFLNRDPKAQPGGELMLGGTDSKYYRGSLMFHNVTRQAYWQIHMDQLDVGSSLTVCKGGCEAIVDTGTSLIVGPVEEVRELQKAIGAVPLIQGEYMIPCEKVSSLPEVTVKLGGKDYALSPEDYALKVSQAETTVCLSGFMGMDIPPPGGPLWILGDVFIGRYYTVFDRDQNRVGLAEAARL
As to the kind of experiment: In vitro inhibitory activity against bovine cathepsin D. As to conditions: read-out: I50.
`CCOC(=O)C(=O)C(CC1CCCCC1)NC(=O)[C@H](CC(C)C)NC(=O)[C@H](Cc1ccccc1)NC(=O)OC(C)(C)C` (stereo partly drawn): the IC50 amounted to 1300 nM.

The target in a further assay is Pepsin A (Sus scrofa, UniProt P00791). As to the kind of experiment: In vitro inhibitory activity against aspartic proteinases pepsin from porcine. As to conditions: read-out: I50.
Pepsin A, sequence (P00791 whole entry): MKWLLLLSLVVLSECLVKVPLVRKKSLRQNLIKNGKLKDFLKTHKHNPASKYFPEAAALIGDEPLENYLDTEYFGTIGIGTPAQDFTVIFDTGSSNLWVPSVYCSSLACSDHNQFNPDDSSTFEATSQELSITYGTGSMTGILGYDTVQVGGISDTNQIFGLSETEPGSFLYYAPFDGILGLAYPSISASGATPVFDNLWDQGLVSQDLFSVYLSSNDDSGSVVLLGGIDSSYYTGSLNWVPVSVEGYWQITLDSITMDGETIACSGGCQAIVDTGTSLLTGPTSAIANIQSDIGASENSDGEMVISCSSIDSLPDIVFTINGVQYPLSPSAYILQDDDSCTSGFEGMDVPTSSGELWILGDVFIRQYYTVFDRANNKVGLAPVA
For the compound `CCOC(=O)C(=O)C(CC1CCCCC1)NC(=O)[C@H](CC(C)C)NC(=O)[C@H](Cc1ccccc1)NC(=O)OC(C)(C)C` (stereo partly drawn), the IC50 came out at 2700 nM.

In another assay the target is T2, Renin (Homo sapiens, UniProt P00797).
T2 sequence (P00797 whole entry): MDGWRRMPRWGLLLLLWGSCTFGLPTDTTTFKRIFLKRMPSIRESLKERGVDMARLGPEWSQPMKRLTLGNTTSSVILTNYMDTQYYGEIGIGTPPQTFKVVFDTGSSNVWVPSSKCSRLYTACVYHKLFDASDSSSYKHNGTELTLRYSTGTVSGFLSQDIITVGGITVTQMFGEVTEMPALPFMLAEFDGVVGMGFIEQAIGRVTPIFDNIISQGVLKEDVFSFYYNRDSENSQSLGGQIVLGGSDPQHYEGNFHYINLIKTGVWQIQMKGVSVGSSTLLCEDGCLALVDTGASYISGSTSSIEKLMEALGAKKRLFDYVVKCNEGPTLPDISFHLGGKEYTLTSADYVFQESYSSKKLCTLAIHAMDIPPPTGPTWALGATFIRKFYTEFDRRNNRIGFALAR
As to the kind of experiment: In vitro inhibitory potency against human kidney renin. The format is tissue-based. To be noted: read-out: I50.
Turning to `CCOC(=O)C(=O)C(CC1CCCCC1)NC(=O)[C@H](CC(C)C)NC(=O)OCc1ccccc1` (stereo partly drawn), the IC50 is 52000 nM. Consider `CCOC(=O)[C@H](O)[C@H](CC1CCCCC1)NC(=O)[C@H](CC(C)C)NC(=O)[C@H](Cc1ccccc1)NC(=O)OC(C)(C)C`, for which the IC50 was determined as 5.3 nM. With `CCCC(=O)[C@H](O)[C@H](CC1CCCCC1)NC(=O)[C@H](CC(C)C)NC(=O)[C@H](Cc1ccccc1)NC(=O)C1CCCC1`, the IC50 stood at 14 nM. Regarding `CCCC(=O)C(=O)[C@H](CC1CCCCC1)NC(=O)[C@H](CC(C)C)NC(=O)[C@H](Cc1ccccc1)NC(=O)OC(C)(C)C`, the IC50 is 52 nM. Still for that read-out and setting: with `CCCC(=O)C(=O)[C@H](CC1CCCCC1)NC(=O)[C@H](CC(C)C)NC(=O)[C@H](Cc1ccccc1)NC(=O)C1CCCC1` the figure was 28 nM; with `CCOC(=O)[C@H](O)[C@H](CC1CCCCC1)NC(=O)[C@H](CC(C)C)NC(=O)[C@@H](CC(=O)N1CCOCC1)Cc1ccccc1`, 4.7 nM; with `CCCC1([C@H](O)[C@H](CC2CCCCC2)NC(=O)[C@H](CC(C)C)NC(=O)[C@H](Cc2ccccc2)NC(=O)OC(C)(C)C)SCCCS1`, 2200 nM. `CCCC(=O)[C@H](O)[C@H](CC1CCCCC1)NC(=O)[C@H](CC(C)C)NC(=O)[C@H](Cc1ccccc1)NC(=O)OC(C)(C)C`: the IC50 turned out to be 23 nM.

As to `CCCC(=O)[C@H](O)[C@H](CC1CCCCC1)NC(=O)[C@H](Cc1c[nH]cn1)NC(=O)OC(C)(C)C`, the IC50 was 420000 nM. As for `CCOC(=O)C(=O)C(CC1CCCCC1)NC(=O)[C@H](CC(C)C)NC(=O)[C@H](Cc1ccccc1)NC(=O)OC(C)(C)C` (stereo partly drawn), the IC50 worked out at 15 nM. For the compound `CC(C)C[C@H](NC(=O)[C@H](Cc1ccccc1)NC(=O)OC(C)(C)C)C(=O)NC(CC1CCCCC1)C(=O)C(=O)O` (stereo partly drawn), the IC50 turned out to be 64000 nM.

Consider `CCOC(=O)C(=O)[C@H](CC1CCCCC1)NC(=O)[C@H](CC(C)C)NC(=O)[C@@H](CC(=O)N1CCOCC1)Cc1ccccc1`, for which the IC50 was found to be 4.1 nM. Same read-out and setting: with `CCOC(=O)[C@@H](O)[C@H](CC1CCCCC1)NC(=O)[C@H](CC(C)C)NC(=O)[C@H](Cc1ccccc1)NC(=O)OC(C)(C)C` the figure was 110 nM. Turning to `CC(C)C[C@H](NC(=O)[C@H](Cc1ccccc1)NC(=O)OC(C)(C)C)C(=O)N[C@@H](CC1CCCCC1)C(C)O` (stereo partly drawn), the IC50 is 3200 nM. Regarding `CC(C)C[C@H](NC(=O)[C@H](Cc1ccccc1)NC(=O)OC(C)(C)C)C(=O)NC(CC1CCCCC1)C(O)C(F)(F)F` (stereo partly drawn), the IC50 amounted to 4000 nM. In the case of `CC(C)C[C@H](NC(=O)[C@H](Cc1ccccc1)NC(=O)OC(C)(C)C)C(=O)NC(CC1CCCCC1)C(=O)C(F)(F)F` (stereo partly drawn) (Boc-Phe-Leu-[ξCha]-CF3), the IC50 came to 250 nM.
